Source: article PMC10827958, “Identification of a novel thermostable transaminase and its application in L-phosphinothricin biosynthesis” (Applied Microbiology and Biotechnology, 2024)

Test system: T1, PtTA
T1 construct: PLP enzyme
Assay: initial rates, chiral HPLC of L-PPT, Michaelis-Menten fit
Format: biochemical, Zestomonas thermotolerans
Conditions: PPO 1-100 mM; co-substrate L-amino acid 100 mM (L-Glu presumably); 0.1 mM PLP; 50 mM phosphate pH 8.0; 55 °C

CP(=O)(O)CCC(=O)C(=O)O [PPO, 4-(hydroxy(methyl)phosphoryl)-2-oxobutanoic acid]
Km: 35.9 mM
